Measured values reported in patent US10077261B2, “Imidazolin-5-one derivative useful as FASN inhibitors for the treatment of cancer” (Janssen Pharmaceutica NV, priority 2012, dated 2018).

What was measured:
[1] = test system: A2780 ovarian cells; assay: A2780 ovarian cell proliferation assay in lipid reduced medium, without palmitate (MTT); format: cell-based; conditions: Homo sapiens, A2780, 96 h; read-out: pIC50 A2780 Ovarian Cell, Without Palmitate (converted)
[2] = test system: PC-3M-Luc-C6 prostate cells; assay: In vitro PC-3M-Luc-C6 prostate cell proliferation assay in lipid reduced medium; format: cell-based; conditions: 96 h, read-out: pIC50 PC-3M-Luc-C6 prostate cell (converted)
[3] = molecular target: T1, hFASN enzyme (full length) (Homo sapiens, UniProt P49327); assay: Fatty Acid Synthase (FASN) inhibition scintillation proximity assay; format: biochemical; conditions: for inhibition at 10 µM: read-out: Human FASN % inhibition @ 10 μM, 10 μM test compound; for IC50: read-out: Human FASN pIC50 (converted)
T1 construct: 10 μL hFASN enzyme (full length, 300 ng, purified in house); made in house
Outline: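 Full-length in-house purified enzyme (300 ng) was tested in 100 mM KH2PO4 pH 7.5, 1 mM DTT with ³H-acetyl-CoA and malonyl-CoA as substrates; compounds ranged 0.01–30 μM. Reactions were stopped with streptavidin imaging beads, read by LEADseeker at 610 nm, and fitted to a 4-parameter logistic curve.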

[4] = molecular target: Fatty Acid Synthase Keto-reductase Domain (FASN KR) (Homo sapiens, UniProt P49327); assay: Fatty Acid Synthase keto-reductase domain (FASN KR) inhibition, NADPH oxidation at 340 nm
Procedure: After 20 minutes incubation at room temperature the plate was measured again (T2).
The decrease in absorbance was calculated as (Absorbance before incubation T1)−(Absorbance following incubation T2).
A plot of Controlmin versus test compound concentration was fitted to a 4-parameter logistic curve using a non-linear least squares regression method.

[5] = test system: LNCaP-Vancouver prostate cells; assay: In vitro LNCaP Vancouver prostate cell proliferation assay in lipid reduced medium; format: cell-based; conditions: read-out: pIC50 LNCaP_Vancouver prostate cell (converted)
[6] = test system: A2780 ovarian cells; assay: A2780 ovarian cell proliferation assay in lipid reduced medium, with palmitate (MTT); format: cell-based; conditions: Homo sapiens, A2780, 96 h; read-out: pIC50 A2780 Ovarian Cell, With Palmitate (converted)
Outline: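 Seeded cells were switched next day to lipid-reduced serum, exposed to compound and 25 μM palmitate complexed with fatty-acid-free BSA, and incubated 96 h. Proliferation was then determined by MTT absorbance at 544 nm, with a best-fit curve of signal against concentration.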

Chain of Fatty Acid Synthase Keto-reductase Domain (FASN KR) (P49327 whole entry, the tested form may be a part): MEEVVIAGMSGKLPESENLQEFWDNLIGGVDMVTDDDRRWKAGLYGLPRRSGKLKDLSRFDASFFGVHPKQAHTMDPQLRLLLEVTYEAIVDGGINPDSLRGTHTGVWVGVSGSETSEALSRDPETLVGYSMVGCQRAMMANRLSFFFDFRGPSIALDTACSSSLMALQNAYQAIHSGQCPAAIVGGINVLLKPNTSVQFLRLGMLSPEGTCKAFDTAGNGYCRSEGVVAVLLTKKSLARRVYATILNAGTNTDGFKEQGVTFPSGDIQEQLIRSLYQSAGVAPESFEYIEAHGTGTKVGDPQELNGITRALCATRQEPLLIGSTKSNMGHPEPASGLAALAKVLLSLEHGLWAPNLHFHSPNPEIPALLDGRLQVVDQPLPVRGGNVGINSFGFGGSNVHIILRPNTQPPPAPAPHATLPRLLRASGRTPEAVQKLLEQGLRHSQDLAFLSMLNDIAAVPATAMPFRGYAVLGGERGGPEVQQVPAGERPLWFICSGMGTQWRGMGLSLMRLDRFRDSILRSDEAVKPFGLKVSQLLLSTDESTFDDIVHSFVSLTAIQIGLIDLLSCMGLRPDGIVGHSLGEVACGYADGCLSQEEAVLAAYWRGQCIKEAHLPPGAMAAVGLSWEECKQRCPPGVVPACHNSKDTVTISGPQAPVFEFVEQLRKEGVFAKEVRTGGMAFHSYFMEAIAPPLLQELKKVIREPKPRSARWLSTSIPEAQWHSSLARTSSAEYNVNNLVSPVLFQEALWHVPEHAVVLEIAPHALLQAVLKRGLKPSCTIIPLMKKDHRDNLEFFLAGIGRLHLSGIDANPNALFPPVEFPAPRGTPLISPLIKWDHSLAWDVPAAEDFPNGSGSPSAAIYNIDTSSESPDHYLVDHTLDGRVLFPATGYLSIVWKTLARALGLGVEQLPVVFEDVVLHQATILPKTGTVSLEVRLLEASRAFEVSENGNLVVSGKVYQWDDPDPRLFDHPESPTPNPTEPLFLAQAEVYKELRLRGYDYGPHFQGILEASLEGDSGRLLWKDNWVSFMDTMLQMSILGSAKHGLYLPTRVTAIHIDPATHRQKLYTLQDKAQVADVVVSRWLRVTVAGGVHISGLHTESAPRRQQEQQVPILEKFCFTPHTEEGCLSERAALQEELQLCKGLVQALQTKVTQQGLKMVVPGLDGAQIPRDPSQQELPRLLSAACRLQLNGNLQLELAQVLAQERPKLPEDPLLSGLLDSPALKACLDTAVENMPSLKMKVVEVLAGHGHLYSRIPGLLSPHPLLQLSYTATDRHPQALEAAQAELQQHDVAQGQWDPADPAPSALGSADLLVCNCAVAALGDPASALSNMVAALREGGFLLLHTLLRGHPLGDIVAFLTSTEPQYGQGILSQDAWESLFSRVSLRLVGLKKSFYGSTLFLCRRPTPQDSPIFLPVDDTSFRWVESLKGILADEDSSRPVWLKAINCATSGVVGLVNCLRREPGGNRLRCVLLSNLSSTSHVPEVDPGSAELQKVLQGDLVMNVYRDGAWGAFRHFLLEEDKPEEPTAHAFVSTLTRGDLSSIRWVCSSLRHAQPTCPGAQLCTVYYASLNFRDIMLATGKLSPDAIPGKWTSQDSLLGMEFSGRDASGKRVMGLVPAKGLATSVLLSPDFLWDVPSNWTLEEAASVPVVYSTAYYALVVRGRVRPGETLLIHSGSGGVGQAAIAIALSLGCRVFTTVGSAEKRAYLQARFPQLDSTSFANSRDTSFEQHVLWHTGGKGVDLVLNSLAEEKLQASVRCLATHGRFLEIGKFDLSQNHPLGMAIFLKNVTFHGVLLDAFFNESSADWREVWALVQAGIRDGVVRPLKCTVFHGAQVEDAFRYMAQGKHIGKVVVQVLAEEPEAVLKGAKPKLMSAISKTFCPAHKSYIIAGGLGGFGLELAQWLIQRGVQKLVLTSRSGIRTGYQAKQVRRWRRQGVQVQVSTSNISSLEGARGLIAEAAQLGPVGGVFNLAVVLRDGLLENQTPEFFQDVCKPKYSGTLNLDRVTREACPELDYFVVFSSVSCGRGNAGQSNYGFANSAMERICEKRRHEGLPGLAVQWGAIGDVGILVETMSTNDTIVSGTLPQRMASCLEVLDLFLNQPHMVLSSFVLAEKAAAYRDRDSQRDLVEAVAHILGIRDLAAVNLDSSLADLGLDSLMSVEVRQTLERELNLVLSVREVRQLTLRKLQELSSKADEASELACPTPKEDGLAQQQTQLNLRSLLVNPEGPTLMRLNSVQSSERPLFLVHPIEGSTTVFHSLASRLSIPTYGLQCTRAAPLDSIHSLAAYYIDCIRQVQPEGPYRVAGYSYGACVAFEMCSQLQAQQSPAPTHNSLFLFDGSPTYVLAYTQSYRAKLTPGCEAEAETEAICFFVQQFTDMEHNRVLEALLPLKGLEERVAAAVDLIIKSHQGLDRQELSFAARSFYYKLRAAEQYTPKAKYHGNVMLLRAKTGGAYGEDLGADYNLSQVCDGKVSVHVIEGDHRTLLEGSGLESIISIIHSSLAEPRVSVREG
T1 sequence (P49327 whole entry): as the sequence (P49327 whole entry, the tested form may be a part) above

| IC50 [1] [nM] | IC50 [2] [nM] | inhibition at 10 µM [3] [%] | IC50 [3] [nM] | IC50 [4] [nM] | IC50 [5] [nM] | IC50 [6] [nM] | SMILES |
| --- | --- | --- | --- | --- | --- | --- | --- |
| 302 | 234 | 100 | 49 | 69.2 | 692 | > 10000 | O=C(C1CC1)N1CC[C@@H](CN2C(=O)C3(CC3)N=C2c2ccc(-c3cccc4ncccc34)cc2F)C1 [compound 250, (R)-6-((1-(cyclopropanecarbonyl)pyrrolidin-3-yl)methyl)-5-(2-fluoro-4-(quinolin-5-yl)phenyl)-4,6-diazaspiro[2.4]hept-4-en-7-one] |
| 72.4 | ~41.7 | 101 | 32.4 | 42.7 | 138 | > 10000 | O=C(C1CC1)N1CC[C@@H](CN2C(=O)C3(CC3)N=C2c2ccc(-c3nc4ccccc4o3)cc2F)C1 [compound 251, (R)-5-(4-(benzo[d]oxazol-2-yl)-2-fluorophenyl)-6-((1-(cyclopropanecarbonyl)pyrrolidin-3-yl)methyl)-4,6-diazaspiro[2.4]hept-4-en-7-one] |
| 12 | 14.1 | 97 | 35.5 | 27.5 | 64.6 | > 10000 | O=C(C1CC1)N1CC[C@@H](CN2C(=O)C3(CC3)N=C2c2ccc(-c3ccc4[nH]ncc4c3)cc2F)C1 [compound 253, (R)-6-((1-(cyclopropanecarbonyl)pyrrolidin-3-yl)methyl)-5-(2-fluoro-4-(1H-indazol-5-yl)phenyl)-4,6-diazaspiro[2.4]hept-4-en-7-one] |
| 437 | 224 | 100 | 29.5 | 50.1 | 1380 | > 10000 | N#Cc1cc2cc(-c3ccc(C4=NC5(CC5)C(=O)N4C[C@@H]4CCN(C(=O)C5CC5)C4)c(F)c3)ccc2o1 [compound 254, (R)-5-(4-(6-((1-(cyclopropanecarbonyl)pyrrolidin-3-yl)methyl)-7-oxo-4,6-diazspiro[2.4]hept-4-en-5-yl)-3-fluorophenyl)benzofuran-2-carbonitrile] |
| ~977 | ~525 | 99 | 63.1 | 83.2 | 1120 | > 10000 | Cc1cc(-c2ccc3oc(C#N)cc3c2)ccc1C1=NC2(CC2)C(=O)N1C[C@@H]1CCN(C(=O)C2CC2)C1 [compound 255, (R)-5-(4-(6-((1-(cyclopropanecarbonyl)pyrrolidin-3-yl)methyl)-7-oxo-4,6-diazaspiro[2.4]hept-4-en-5-yl)-3-methylphenyl)benzofuran-2-carbonitrile] |
| 832 | ~417 | 95 | 53.7 | 95.5 | 2400 | > 10000 | N#Cc1cc2cc(-c3ccc(C4=NC5(CC5)C(=O)N4C[C@@H]4CCN(C(=O)C5CC5)C4)cc3)ccc2o1 [compound 256, (R)-5-(4-(6-((1-(cyclopropanecarbonyl)pyrrolidin-3-yl)methyl)-7-oxo-4,6-diazaspiro[2.4]hept-4-en-5-yl)phenyl)benzofuran-2-carbonitrile] |
| ~11.2 | 14.5 | 94 | 72.4 | 83.2 | 31.6 | > 10000 | O=C(C1CC1)N1CC[C@@H](CN2C(=O)C3(CC3)N=C2c2ccc(-c3ccc4cncnc4c3)cc2F)C1 [compound 258, (R)-6-((1-(cyclopropanecarbonyl)pyrrolidin-3-yl)methyl)-5-(2-fluoro-4-(quinazolin-7-yl)phenyl)-4,6-diazaspiro[2.4]hept-4-en-7-one] |
| 105 | 67.6 | 95 | 25.1 | 29.5 | 447 | > 10000 | O=C(C1CC1)N1CC[C@@H](CN2C(=O)C3(CC3)N=C2c2ccc(-c3ccc4cc(F)ccc4c3)cc2F)C1 [compound 259, (R)-6-((1-(cyclopropanecarbonyl)pyrrolidin-3-yl)methyl)-5-(2-fluoro-4-(6-fluoronaphthalen-2-yl)phenyl)-4,6-diazaspiro[2.4]hept-4-en-7-one] |
| ~70.8 | 37.2 | 101 | 16.2 | 37.2 | 85.1 | > 10000 | O=C(C1CC1)N1CC[C@@H](CN2C(=O)C3(CC3)N=C2c2ccc(-c3ccc4cccc(F)c4c3)cc2F)C1 [compound 260, (R)-6-((1-(cyclopropanecarbonyl)pyrrolidin-3-yl)methyl)-5-(2-fluoro-4-(8-fluoronaphthalen-2-yl)phenyl)-4,6-diazaspiro[2.4]hept-4-en-7-one] |
| 6.61 | 21.4 | 98 | 55 | 89.1 | ~102 | > 10000 | O=C(C1CC1)N1CC[C@@H](CN2C(=O)C3(CC3)N=C2c2ccc(-c3c[nH]c4ccccc34)cc2F)C1 [compound 261, (R)-6-((1-(cyclopropanecarbonyl)pyrrolidin-3-yl)methyl)-5-(2-fluoro-4-(1H-indol-3-yl)phenyl)-4,6-diazaspiro[2.4]hept-4-en-7-one] |
| 74.1 | 44.7 | 108 | 37.2 | 158 | 501 | > 10000 | Cn1ncc2cc(-c3ccc(C4=NC5(CC5)C(=O)N4CC4CN(C(=O)C5(O)CC5)C4)c(Cl)c3)ccc21 [compound 264, 5-(2-chloro-4-(1-methyl-1H-indazol-5-yl)phenyl)-6-((1-(1-hydroxycyclopropanecarbonyl)azetidin-3-yl)methyl)-4,6-diazaspiro[2.4]hept-4-en-7-one] |
| ~2.88 | ~7.08 | 103 | 45.7 | ~53.7 | 13.8 | > 10000 | Cc1cc(-c2ccc3c(cnn3C)c2)ccc1C1=NC2(CC2)C(=O)N1C[C@@H]1CCN(C(=O)C2(C)CC2)C1 [compound 265, (R)-5-(2-methyl-4-(1-methyl-1H-indazol-5-yl)phenyl)-6-((1-(1-methylcyclopropanecarbonyl)pyrrolidin-3-yl)methyl)-4,6-diazaspiro[2.4]hept-4-en-7-one] |
| ~2.19 | 4.68 | 102 | 33.9 | 46.8 | 15.1 | 1350 | Cc1cc(-c2ccc3cc(F)ccc3c2)ccc1C1=NC2(CC2)C(=O)N1C[C@@H]1CCN(C(=O)C2(C)CC2)C1 [compound 266, (R)-5-(4-(6-fluoronaaphthalen-2-yl)-2-methylphenyl)-6-((1-(1-methylcyclopropanecarbonyl)pyrrolidin-3-yl)methyl)-4,6-diazaspiro[2.4]hept-4-en-7-one] |
| 1.7 | ~3.09 | 97 | 26.3 | 51.3 | 12.3 | > 10000 | Cc1cc(-c2ccc(-c3cnn(C)c3)cc2)ccc1C1=NC2(CC2)C(=O)N1C[C@@H]1CCN(C(=O)C2(C)CC2)C1 [compound 267] |
| ~44.7 | 58.9 | 104 | 55 | 69.2 | 288 | > 10000 | N#Cc1ccc2nc(-c3ccc(C4=NC5(CC5)C(=O)N4CC4CN(C(=O)C5CC5)C4)c(F)c3)sc2c1 [compound 268, 2-(4-(6-((1-(cyclopropanecarbonyl)azetidin-3-yl)methyl)-7-oxo-4,6-diazaspiro[2.4]hept-4-en-5-yl)-3-fluorophenyl)benzo[d]thiazole-6-carbonitrile] |
| ~3.72 | ~8.32 | 102 | 22.4 | 66.1 | 28.2 | 4270 | Cc1cc(-c2ccc3cc(C#N)ccc3c2)ccc1C1=NC2(CC2)C(=O)N1CC1CN(C(=O)C2(C)CC2)C1 [compound 269, 6-(3-methyl-4-(6-((1-(1-methylcyclopropanecarbbonyl)azetidin-3-yl)methyl)-7-oxo-4,6-diazaspiro[2.4]hept-4-en-5-yl)phenyl)-2-naphthonitrile] |
| ~27.5 | 34.7 | 102 | 35.5 | 166 | 195 | ~5500 | Cc1ccc2nc(-c3ccc(C4=NC5(CC5)C(=O)N4CC4CN(C(=O)C5CC5)C4)c(F)c3)sc2c1 [compound 270, 6-((1-(cyclopropanecarbonyl)azetidin-3-yl)methyl)-5-(2-fluoro-4-(6-methylbenzo[d]thiazol-2-yl)phenyl)-4,6-diazaspiro[2.4]hept-4-en-7-one] |
